Key:
male Charles River rats = assay: D'Amour-Smith rat tail-flick procedure (radiant heat, 8 second cut-off), intraventricular injection; assay type: in vivo
Description: Intraventricular cannulae, made of 27-gauge stainless steel tubing, are implanted in 300-400 g. male Charles River rats under pentobarbital anesthesia. After a recovery period of at least one week, the rats are restrained in a wire-mesh cylindrical chamber so that the tip of the tail can be positioned at the focal point of a radiant heat source. After an acclimatistation period of 5 minutes, the lamp is turned on and an electric clock activated. Movement of the tip of the tail exposes a photocell to the lamp, which turns off the thermal stimulus and stops the clock. If a rat fails to move its tail within 8 seconds, the heat is automatically turned off to prevent blistering. The intensity of the lamp is adjusted in each case to produce at least three baseline tail-flick latencies of 2.5-4.5 seconds. Tests are initially made every 2 minutes, then every 5 minutes and finally every 15 minutes.
Initially, using the above outlined procedure, the effects of intraventricularly administered leucine-enkephalin are tested in rats according to the above procedure.
The rat tail flick procedure is repeated, first by the simultaneous intraventricular injection of both leucine-enkephalin and bestatin and then by the initial injection of bestatin followed one hour later by the injection of leucine-enkephalin.
The above procedure is repeated again, however, the bestatin is administered first and then one hour later the leucine-enkephalin is administered.
The effects of bestatin alone are tested in rats according to the rat tail flick procedure.

aminopeptidase B = aminopeptidase B (Homo sapiens, UniProt Q9H4A4); conditions: cited from earlier work
leucine aminopeptidase = conditions: cited from earlier work
bleomycin hydrolase = target: T1, bleomycin hydrolase (Homo sapiens, UniProt Q13867); conditions: cited from earlier work
T1 sequence (Q13867 1-455): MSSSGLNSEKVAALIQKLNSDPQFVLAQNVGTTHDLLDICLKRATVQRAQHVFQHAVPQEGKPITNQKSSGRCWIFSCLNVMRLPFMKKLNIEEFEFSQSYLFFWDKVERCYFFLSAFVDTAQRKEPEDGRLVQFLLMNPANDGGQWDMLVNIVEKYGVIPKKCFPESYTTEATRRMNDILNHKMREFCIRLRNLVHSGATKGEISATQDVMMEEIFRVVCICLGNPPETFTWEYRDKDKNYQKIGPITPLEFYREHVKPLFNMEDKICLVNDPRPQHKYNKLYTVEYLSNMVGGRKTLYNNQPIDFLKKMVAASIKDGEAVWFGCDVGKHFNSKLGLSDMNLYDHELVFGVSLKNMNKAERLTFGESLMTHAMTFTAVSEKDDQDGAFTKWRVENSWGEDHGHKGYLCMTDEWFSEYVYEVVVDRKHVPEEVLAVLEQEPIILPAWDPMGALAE

Chain of aminopeptidase B (Q9H4A4 whole entry, species assumed): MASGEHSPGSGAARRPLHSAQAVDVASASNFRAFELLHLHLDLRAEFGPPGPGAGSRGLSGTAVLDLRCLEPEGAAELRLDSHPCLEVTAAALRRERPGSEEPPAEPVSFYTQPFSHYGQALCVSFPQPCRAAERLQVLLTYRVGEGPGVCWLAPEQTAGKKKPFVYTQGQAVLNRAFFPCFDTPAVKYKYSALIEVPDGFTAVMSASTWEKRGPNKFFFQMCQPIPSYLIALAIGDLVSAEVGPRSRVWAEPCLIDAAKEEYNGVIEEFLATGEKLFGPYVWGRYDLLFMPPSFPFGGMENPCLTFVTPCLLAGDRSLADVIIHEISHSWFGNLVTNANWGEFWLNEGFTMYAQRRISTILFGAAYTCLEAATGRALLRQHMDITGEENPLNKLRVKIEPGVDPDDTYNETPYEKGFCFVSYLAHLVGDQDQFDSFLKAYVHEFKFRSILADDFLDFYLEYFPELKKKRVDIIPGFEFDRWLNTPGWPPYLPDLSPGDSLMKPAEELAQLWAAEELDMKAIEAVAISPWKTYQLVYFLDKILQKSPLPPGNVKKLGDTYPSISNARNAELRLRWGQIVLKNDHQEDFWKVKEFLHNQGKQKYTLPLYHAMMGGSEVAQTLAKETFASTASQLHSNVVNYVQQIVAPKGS

## CC(C)C[C@H](NC(=O)[C@@H](O)[C@H](N)Cc1ccccc1)C(=O)O [bestatin, [(2S,3R)-3-amino-2-hydroxy-4-phenylbutanoyl]-L-leucine]
Male Charles River rats; 400 μg bestatin alone into lateral ventricle, Rat 2, 30 min
  Tail-flick latency: 8.00 s
Male Charles River rats; 400 μg bestatin alone into lateral ventricle, Rat 2, 35 min
  Tail-flick latency: 8.00 s
Male Charles River rats; 400 μg bestatin alone into lateral ventricle, Rat 2, 40 min
  Tail-flick latency: 8.00 s
Male Charles River rats; 400 μg bestatin alone into lateral ventricle, Rat 2, 45 min
  Tail-flick latency: 8.00 s
Male Charles River rats; 400 μg bestatin alone into lateral ventricle, Rat 2, 50 min
  Tail-flick latency: 8.00 s
Male Charles River rats; 400 μg bestatin alone into lateral ventricle, Rat 2, 55 min
  Tail-flick latency: 8.00 s
Male Charles River rats; 400 μg bestatin alone into lateral ventricle, Rat 2, 60 min
  Tail-flick latency: 8.00 s
Male Charles River rats; 400 μg bestatin alone into lateral ventricle, Rat 2, 75 min
  Tail-flick latency: 8.00 s
Male Charles River rats; 400 μg bestatin alone into lateral ventricle, Rat 2, 90 min
  Tail-flick latency: 8.00 s
Male Charles River rats; 400 μg bestatin alone into lateral ventricle, Rat 2, 105 min
  Tail-flick latency: 8.00 s
Male Charles River rats; 400 μg bestatin alone into lateral ventricle, Rat 2, 120 min
  Tail-flick latency: 8.00 s
Male Charles River rats; 400 μg bestatin alone into lateral ventricle, Rat 2, 135 min
  Tail-flick latency: 8.00 s
Male Charles River rats; 400 μg bestatin alone into lateral ventricle, Rat 2, 150 min
  Tail-flick latency: 8.00 s
Male Charles River rats; 400 μg bestatin alone into lateral ventricle, Rat 2, 165 min
  Tail-flick latency: 8.00 s
Male Charles River rats; 400 μg bestatin alone into lateral ventricle, Rat 2, 180 min
  Tail-flick latency: 8.00 s
Male Charles River rats; 400 μg bestatin alone into lateral ventricle, Rat 2, 195 min
  Tail-flick latency: 8.00 s
Male Charles River rats; 400 μg bestatin alone into lateral ventricle, Rat 2, 210 min
  Tail-flick latency: 8.00 s
Male Charles River rats; 400 μg bestatin alone into lateral ventricle, Rat 2, 225 min
  Tail-flick latency: 8.00 s
Male Charles River rats; 400 μg bestatin alone into lateral ventricle, Rat 2, 240 min
  Tail-flick latency: 8.00 s
Male Charles River rats; 400 μg bestatin alone into lateral ventricle, Rat 2, 255 min
  Tail-flick latency: 8.00 s
Male Charles River rats; 400 μg bestatin alone into lateral ventricle, Rat 2, 270 min
  Tail-flick latency: 8.00 s
Male Charles River rats; 400 μg bestatin alone into lateral ventricle, Rat 2, 285 min
  Tail-flick latency: 8.00 s
Male Charles River rats; 400 μg bestatin alone into lateral ventricle, Rat 2, 300 min
  Tail-flick latency: 5.19 s
Male Charles River rats; 400 μg bestatin alone into lateral ventricle, Rat 2, 315 min
  Tail-flick latency: 4.32 s
Male Charles River rats; 400 μg bestatin alone into lateral ventricle, Rat 2, 330 min
  Tail-flick latency: 4.11 s
Male Charles River rats; 400 μg leucine-enkephalin + 200 μg bestatin injected together into lateral ventricle, 1 rat, 2 min
  Tail-flick latency: 7.31 s
Male Charles River rats; 400 μg leucine-enkephalin + 200 μg bestatin injected together into lateral ventricle, 1 rat, 4 min
  Tail-flick latency: 7.56 s
Male Charles River rats; 400 μg leucine-enkephalin + 200 μg bestatin injected together into lateral ventricle, 1 rat, 6 min
  Tail-flick latency: 5.78 s
Male Charles River rats; 400 μg leucine-enkephalin + 200 μg bestatin injected together into lateral ventricle, 1 rat, 8 min
  Tail-flick latency: 6.69 s
Male Charles River rats; 400 μg leucine-enkephalin + 200 μg bestatin injected together into lateral ventricle, 1 rat, 10 min
  Tail-flick latency: 6.99 s
Male Charles River rats; 400 μg leucine-enkephalin + 200 μg bestatin injected together into lateral ventricle, 1 rat, 12 min
  Tail-flick latency: 8.00 s
Male Charles River rats; 400 μg leucine-enkephalin + 200 μg bestatin injected together into lateral ventricle, 1 rat, 14 min
  Tail-flick latency: 8.00 s
Male Charles River rats; 400 μg leucine-enkephalin + 200 μg bestatin injected together into lateral ventricle, 1 rat, 16 min
  Tail-flick latency: 6.50 s
Male Charles River rats; 400 μg leucine-enkephalin + 200 μg bestatin injected together into lateral ventricle, 1 rat, 18 min
  Tail-flick latency: 5.31 s
Male Charles River rats; 400 μg leucine-enkephalin + 200 μg bestatin injected together into lateral ventricle, 1 rat, 20 min
  Tail-flick latency: 2.31 s
Male Charles River rats; 400 μg leucine-enkephalin + 200 μg bestatin injected together into lateral ventricle, 1 rat, 22 min
  Tail-flick latency: 8.00 s
Male Charles River rats; 400 μg leucine-enkephalin + 200 μg bestatin injected together into lateral ventricle, 1 rat, 24 min
  Tail-flick latency: 6.23 s
Male Charles River rats; 400 μg leucine-enkephalin + 200 μg bestatin injected together into lateral ventricle, 1 rat, 26 min
  Tail-flick latency: 8.00 s
Male Charles River rats; 400 μg leucine-enkephalin + 200 μg bestatin injected together into lateral ventricle, 1 rat, 28 min
  Tail-flick latency: 8.00 s
Male Charles River rats; 400 μg leucine-enkephalin + 200 μg bestatin injected together into lateral ventricle, 1 rat, 30 min
  Tail-flick latency: 8.00 s
Male Charles River rats; 400 μg leucine-enkephalin + 200 μg bestatin injected together into lateral ventricle, 1 rat, 32 min
  Tail-flick latency: 4.90 s
Male Charles River rats; 400 μg leucine-enkephalin + 200 μg bestatin injected together into lateral ventricle, 1 rat, 34 min
  Tail-flick latency: 8.00 s
Male Charles River rats; 400 μg leucine-enkephalin + 200 μg bestatin injected together into lateral ventricle, 1 rat, 36 min
  Tail-flick latency: 8.00 s
Male Charles River rats; 400 μg leucine-enkephalin + 200 μg bestatin injected together into lateral ventricle, 1 rat, 38 min
  Tail-flick latency: 4.75 s
Male Charles River rats; 400 μg leucine-enkephalin + 200 μg bestatin injected together into lateral ventricle, 1 rat, 40 min
  Tail-flick latency: 8.00 s
Male Charles River rats; 400 μg leucine-enkephalin + 200 μg bestatin injected together into lateral ventricle, 1 rat, 42 min
  Tail-flick latency: 3.21 s
Male Charles River rats; 400 μg leucine-enkephalin + 200 μg bestatin injected together into lateral ventricle, 1 rat, 44 min
  Tail-flick latency: 3.29 s
Male Charles River rats; 400 μg leucine-enkephalin + 200 μg bestatin injected together into lateral ventricle, 1 rat, 46 min
  Tail-flick latency: 2.47 s
Male Charles River rats; 400 μg level, lateral ventricle, rats
  Analgesia induced by bestatin alone: very potent analgesia
Male Charles River rats; bestatin administered one hour prior to leucine-enkephalin, intraventricular, rat
  Effect on the analgesic effects of leucine-enkephalin: can be extended by bestatin
Male Charles River rats; bestatin given simultaneously with leucine-enkephalin, intraventricular, rat
  Effect on the analgesic effect of leucine-enkephalin: very significantly extend the analgesic effect of leucine-enkephalin
Aminopeptidase B
  Inhibition of aminopeptidase B: inhibitors
Leucine aminopeptidase
  Inhibition of leucine aminopeptidase: inhibitors
Bleomycin hydrolase
  Inhibition of bleomycin hydrolase: inhibitors
